# Test results from patent publication US7541141B2, “Method of using estrogen-related receptor alpha (ERRα) status to determine prognosis, treatment strategy and predisposition to breast cancer, and method of using ERRα as a therapeutic target for the treatment of breast cancer” (Wisconsin Alumni Research Foundation, priority 1997, dated 2009).
# T1: ERRα1 (Homo sapiens, UniProt P11474)
# T1 construct: expressed in transfected cells; host or cells: COS cells (whole-cell extract)
# T1 sequence (P11474 1-423): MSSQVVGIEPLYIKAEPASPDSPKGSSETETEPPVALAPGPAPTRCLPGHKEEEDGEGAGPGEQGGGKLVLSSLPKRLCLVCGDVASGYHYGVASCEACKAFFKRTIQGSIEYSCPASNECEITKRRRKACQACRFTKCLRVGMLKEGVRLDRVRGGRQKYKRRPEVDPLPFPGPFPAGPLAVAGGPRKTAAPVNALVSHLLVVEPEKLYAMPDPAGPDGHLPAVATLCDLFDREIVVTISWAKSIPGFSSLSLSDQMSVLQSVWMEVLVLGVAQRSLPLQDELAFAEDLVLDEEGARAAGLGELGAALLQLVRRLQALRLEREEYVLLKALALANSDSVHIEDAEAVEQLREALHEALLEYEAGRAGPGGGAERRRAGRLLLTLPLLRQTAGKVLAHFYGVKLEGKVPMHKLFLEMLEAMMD
# B1: ERRα11-173: carboxyl-terminal-deleted ERRα1 variant (residues 1-173) retaining A/B and DNA binding domains, lacking E/F domains (protein)
# chain: MSSQVVGIEPLYIKAEPASPDSPKGSSETETEPPVALAPGPAPTRCLPGHKEEEDGEGAGPGEQGGGKLVLSSLPKRLCLVCGDVASGYHYGVASCEACKAFFKRTIQGSIEYSCPASNECEITKRRRKACQACRFTKCLRVGMLKEGVRLDRVRGGRQKYKRRPEVDPLPFP
# B2: ERRα176-423: amino-terminal-deleted ERRα1 variant (residues 76-423) lacking the A/B domain (protein)
# chain: MKRLCLVCGDVASGYHYGVASCEACKAFFKRTIQGSIEYSCPASNECEITKRRRKACQACRFTKCLRVGMLKEGVRLDRVRGGRQKYKRRPEVDPLPFPGPFPAGPLAVAGGPRKTAAPVNALVSHLLVVEPEKLYAMPDPAGPDGHLPAVATLCDLFDREIVVTISWAKSIPGFSSLSLSDQMSVLQSVWMEVLVLGVAQRSLPLQDELAFAEDLVLDEEGARAAGLGELGAALLQLVRRLQALRLEREEYVLLKALALANSDSVHIEDAEAVEQLREALHEALLEYEAGRAGPGGGAERRRAGRLLLTLPLLRQTAGKVLAHFYGVKLEGKVPMHKLFLEMLEAMMD
# Molecular target: T1, ERRα1
# Experiment: Quantitative competition EMSA of unlabeled oligodeoxynucleotides against 32P-labeled reference consensus ERRE
# Type: binding
# Settings: relative to reference consensus ERRE; reciprocal of fold molar excess of competitor reducing shifted probe by 50%; COS whole cell extracts
# Procedure: Quantitative gel-mobility-shift assays: DNA binding was assayed in 20 μl of a buffer containing 10 mM HEPES (pH 7.5), 2.5 mM MgCl2, 50 μM EDTA, 1 mM dithiothreitol, 6% glycerol and 100 ng/μl of poly(dI-dC)·poly(dI-dC). Competition binding assays included unlabeled competitor oligonucleotide as well. […] Supershift assays contained 1 μl of a 1:10 dilution of whole antiserum. All components were mixed prior to the addition of protein. The final mixtures were incubated on ice for 15 minutes, followed by 25° C. for 15 minutes prior to separation by electrophoresis at 4° C. for 2 hours through a non-denaturing 4% polyacrylamide gel at 160 volts. Quantitation was performed with a PhosphorImager (Molecular Dynamics). The relative affinities of different sequences for binding by the protein were determined from the moles of unlabeled competitor oligonucleotide needed to reduce the fraction of probe shifted to 50%.
# Knowing which genes are transcriptionally modulated by ERR may help to clarify ERR's potential role in breast cancer. To identify potential ERR-responsive genes, we examined the transcriptional regulatory regions of genes known to be involved in breast cancer for sequences capable of being bound by ERR. […] This sequence is a half-site of the consensus palindromic estrogen response element (ERE, 5′-AGGTCAnnnTGACCT (SEQ ID NO:32)) with a 3-base pair extension at the 5′ end. Searching sequence databases (the EPD Eukaryotic Promoter Database available on line from the Swiss Institute of Bioinformatics (17), and Genbank available on line from the National Center for Biotechnology Information, National Library of Medicine, National Institute of Health) facilitated the location of this consensus and similar non-consensus ERREs in human gene promoters, which were selected and tested experimentally for whether they contained authentic ERR-binding sites. Using quantitative competitive EMSAs performed similarly as described in FIG. 5 of Example 1, we identified many authentic ERR-binding sites that exist in the promoters of important genes implicated in breast cancer. These sequences and ERR's affinity for binding these sites relative to a reference consensus ERRE are shown in Table 3 (Location, distance of the ERRE sequence from the gene's transcriptional start site; Ref, reference of the gene's prognostic status or relevance to human breast cancer).
row,Molecule,Relative binding affinity (RBA) of ERRα1 for DNA sequence
1,AAAATTGTTTTGTCTAGGTCATTTGCATTTTCA (chemistry not given here) [PgR site 1],0.14
2,AAAGGAACTTTCCCAAGGTCACAGAGCTGAGCT (chemistry not given here) [ErbB2],1.01
3,AGAACATCCCTTTTAAGGTCAGAACAAAGGTAT (chemistry not given here) [BRCA2],0.08
4,ATGTTTGGTATGAAAAGGTCACATTTTATATTC (chemistry not given here) [ERα],0.11
5,CAAATAATGGGCTGAAGGTGAACTATCTTTACT (chemistry not given here) [EGF],0.14
6,CAAATTTGAAACTAAAGGTCACAGGCTGCTTTA (chemistry not given here) [Pr1 site 2],0.33
7,CCTCAGAGTGGCTCAGGGTCAGAGAAGGTAGAG (chemistry not given here) [Pr1 site 3],0.07
8,CCTGAGACTCTACCAAGGTCAGAAATGCTGCAA (chemistry not given here) [aromatase],0.17
9,CTCCCATCTCACTTAAGGTCAAAGCCAGGGTCC (chemistry not given here) [elk1],0.22
10,CTGTCGGCAGGAACAAGGTCACCCCTTGGCGTT (chemistry not given here) [IGF2 site 2],0.25
11,GCGAGGAAAGCGTGAAGGTGATTTCAGTTAATT (chemistry not given here) [cyclin D1],0.07
12,GCTCCGGCTCGCTGAAGGTCACAGCCGAGGCGA (chemistry not given here) [IGF1R],0.36
13,GGGAGTTCAGGGTAAAGGTCACGGGGCCGGGGC (chemistry not given here) [hMDM2],0.35
14,GGTGCTCCCACTTAGAGGTCACGCGCGGCGTCG (chemistry not given here) [ERβ],0.54
15,GGTGGACGCTGCTGAAGGTGAGCGAGACCCCGG (chemistry not given here) [IGF2 site 3],0.06
16,GTAATTGCTGTACGAAGGTCAGAATCGCTACCT (chemistry not given here) [BRCA1],0.17
17,GTAGGACCTGGATTAAGGTCAGGTTGGAGGAGA (chemistry not given here) [pS2 site 2],0.12
18,TCCCTTCCCCCTGCAAGGTCACGGTGGCCACCC (chemistry not given here) [pS2 site 1],0.49
19,TCCTAAGGACTGTCAAGGTCATCAAATACAAGG (chemistry not given here) [PgR site 3],1.45
20,TCCTTGCTAAACCCAAGGTCATAAATCTTTTCT (chemistry not given here) [PgR site 2],0.91
21,"TCGAGAGCAGTGGCGATTTGTCAAGGTCACACAGTGAG (DNA, backbone not given here) [Reference ERRE, reference compound]",1.00
22,TGGCATATTGGGTGAAGGTCAAGGGAGTGGCTT (chemistry not given here) [Cathepsin D],0.49
23,TGTCCATTTTCTTCTAGGTCAACCCCAATGGTA (chemistry not given here) [Pr1 site 1],0.06

# Test system: ERE-dependent transcription in MCF-7 cells
# Experiment: p3xERE-TK-luc luciferase reporter, transient transfection
# Type: cell-based, human
# Settings: 0.12 or 0.25 μg expression plasmid, whole FBS, 48 h
# Procedure: Transient Transfections and Luciferase Assays: To assess the role ERRα plays in regulating transcription of an ERE-containing promoter, MCF-7 or HeLa cells grown in 12-well tissue culture plates were co-transfected in parallel with 0.5 μg of pTK-luc versus p3xERE-TK-luc along with the indicated amounts of the empty cloning vector pcDNA3.1, the ERRα1 expression plasmid pcDNA3.1-hERRα1, or mutant variants thereof. Transfections were performed with the aid of the TransIT LT1 transfection reagent (PanVera, Madison, Wis.) as previously described (35). To examine the effects of ER ligands, cells were maintained in stripped medium for 48 h before transfection and the addition of 17β-estradiol (E2) (Sigma) or the pure anti-estrogen ICI-182,780 (Astra Zeneca, London, UK) dissolved in ethanol and diluted in medium to obtain the indicated concentrations. Cells were harvested 48 h post-transfection, and lysates were assayed for luciferase activity normalized to protein concentration as previously described (36).
# ERRα Represses Transcription in MCF-7 Cells: Because ERRα can interfere with the binding of ERα to this ERE, might it affect estrogen-responsive transcription? To answer this question, we co-transfected ERα-positive mammary MCF-7 cells in parallel with p3xERE-TK-luc, a reporter plasmid containing three tandem copies of this ERE (FIG. 14A) or the ERE-negative control plasmid, pTK-luc, together with 0.12 or 0.25 μg of the ERRα1 expression plasmid, pcDNA3.1-hERRα1, or the empty parental expression plasmid, pcDNA3.1. After incubation for 48 h in medium containing whole FBS, the cells were harvested and assayed for luciferase activity. The presence of the EREs conferred an about 150-fold increase in transcriptional activity above the level observed in the cells transfected with the ERE-negative reporter plasmid (FIG. 14B). […] Thus, ERRα inhibits the estrogen-responsive activation of transcription from this ERE-containing promoter in this ER-positive MCF-7 cell line.
# ERRα Modulates Estrogen-responsiveness in MCF-7 Cells: To directly examine the effect of ERRα on the response to estrogen, MCF-7 cells were cultured in medium containing estrogen-free charcoal-stripped FBS and cotransfected as described above but in the absence or presence of E2. […] Once again, overexpression of ERRα repressed ERE-dependent transcription approximately 3-fold while having little if any effect on transcription of the control reporter (FIG. 15A).
row,Molecule,Repression of ERE-dependent transcription by overexpression
1,B1,failed to repress
2,B2,2-3 fold

# Same assay, conditions: 1×10^−8 M E2, charcoal-stripped FBS
row,Molecule,Additional stimulation of ERE-dependent transcription over level with 10^−10 M E2
1,"C[C@]12CC[C@@H]3c4ccc(O)cc4CC[C@H]3[C@@H]1CC[C@@H]2O [E2, 17β-estradiol, reference compound]",3 fold

# Same assay, conditions: 1×10^−8 M E2, charcoal-stripped FBS, 48 h
row,Molecule,ERE-dependent transcription above activity without exogenous E2
1,"C[C@]12CC[C@@H]3c4ccc(O)cc4CC[C@H]3[C@@H]1CC[C@@H]2O [E2, 17β-estradiol, reference compound]",approximately 30 fold

# Same assay, conditions: 1×10^−10 M E2, charcoal-stripped FBS, 48 h
row,Molecule,Induction of transcriptional activity of ERE-containing reporter above level without exogenous E2
1,"C[C@]12CC[C@@H]3c4ccc(O)cc4CC[C@H]3[C@@H]1CC[C@@H]2O [E2, 17β-estradiol, reference compound]",approximately 10 fold
